Results reported in PMC5031918 (Journal of Antimicrobial Chemotherapy, 2016).
“Also recorded” adds a separate entry of the source. Read-outs that look alike come from different tables or passages of the source.

Tests used:
primary CD4+ T cells = experiment: Calcein accumulation/efflux in primary CD4+ T cells, flow cytometry; type: cell-based, human
CEM-WT cells = experiment: [3H]raltegravir cellular accumulation ratio; type: in vitro ADME, human; settings: 30 min; for Effect of efflux inhibitor on [3H]raltegravir CAR: MK571 100 μM, XR9051 10 μM or 1 μM (Figure 1a); for Effect of 100 μM cold drug (cis inhibitor) on [3H]raltegravir CAR / CAR of raltegravir: [3H]raltegravir 1 μM
CEM-WT (CEM-CCRF) cells = experiment: Calcein-AM fluorescence accumulation assay, flow cytometry, CEM-WT cells; type: cell-based, human; settings: antiviral drug at 100 μM, calcein-AM 0.25 μM
[1] = biological target: T1, MRP1 (ABCC1), CEM-MRP1 cells (Homo sapiens, UniProt P33527); experiment: Calcein-AM fluorescence accumulation assay, flow cytometry, CEM-MRP1 cells; type: cell-based; settings: antiviral drug at 100 μM, calcein-AM 0.25 μM
T1 sequence (P33527 whole entry): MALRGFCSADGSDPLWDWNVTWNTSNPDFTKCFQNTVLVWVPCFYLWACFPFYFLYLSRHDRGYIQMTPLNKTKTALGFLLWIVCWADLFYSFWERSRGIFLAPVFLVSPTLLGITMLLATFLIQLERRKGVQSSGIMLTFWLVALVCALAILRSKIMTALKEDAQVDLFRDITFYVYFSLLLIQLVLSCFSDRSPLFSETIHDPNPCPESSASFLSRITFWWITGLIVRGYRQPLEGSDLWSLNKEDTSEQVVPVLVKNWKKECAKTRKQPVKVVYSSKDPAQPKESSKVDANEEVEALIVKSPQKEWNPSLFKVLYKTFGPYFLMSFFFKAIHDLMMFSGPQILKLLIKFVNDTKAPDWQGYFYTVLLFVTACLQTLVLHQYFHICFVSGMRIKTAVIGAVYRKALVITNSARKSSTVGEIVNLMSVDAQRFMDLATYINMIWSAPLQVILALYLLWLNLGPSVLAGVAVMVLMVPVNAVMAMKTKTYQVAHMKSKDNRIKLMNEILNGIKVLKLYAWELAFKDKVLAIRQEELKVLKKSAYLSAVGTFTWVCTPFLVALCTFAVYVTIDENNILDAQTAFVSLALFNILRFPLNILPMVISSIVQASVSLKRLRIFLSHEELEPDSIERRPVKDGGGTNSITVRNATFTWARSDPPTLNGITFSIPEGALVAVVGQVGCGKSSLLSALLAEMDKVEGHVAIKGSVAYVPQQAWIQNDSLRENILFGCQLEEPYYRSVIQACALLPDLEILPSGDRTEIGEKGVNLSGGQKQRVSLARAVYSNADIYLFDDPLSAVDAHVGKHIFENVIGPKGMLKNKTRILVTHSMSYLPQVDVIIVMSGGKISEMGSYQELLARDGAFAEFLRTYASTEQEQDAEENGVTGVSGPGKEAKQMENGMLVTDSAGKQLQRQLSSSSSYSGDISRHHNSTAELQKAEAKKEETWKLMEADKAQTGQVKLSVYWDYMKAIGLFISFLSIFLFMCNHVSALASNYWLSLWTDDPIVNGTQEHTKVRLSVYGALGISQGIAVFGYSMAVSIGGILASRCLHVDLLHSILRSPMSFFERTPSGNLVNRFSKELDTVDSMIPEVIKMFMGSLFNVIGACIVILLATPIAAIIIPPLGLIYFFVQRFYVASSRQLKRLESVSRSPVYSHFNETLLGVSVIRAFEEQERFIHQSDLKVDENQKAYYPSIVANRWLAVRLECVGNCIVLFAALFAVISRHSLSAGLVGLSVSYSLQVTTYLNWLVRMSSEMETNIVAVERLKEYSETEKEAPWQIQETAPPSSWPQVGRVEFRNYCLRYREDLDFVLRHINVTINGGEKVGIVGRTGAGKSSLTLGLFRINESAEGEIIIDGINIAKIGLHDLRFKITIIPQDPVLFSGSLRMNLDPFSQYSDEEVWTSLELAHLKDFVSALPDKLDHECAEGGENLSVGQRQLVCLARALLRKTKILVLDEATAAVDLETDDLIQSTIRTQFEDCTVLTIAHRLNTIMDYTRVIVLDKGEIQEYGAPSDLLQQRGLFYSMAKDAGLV

[2] = biological target: T2, P-gp (ABCB1), CEM-P-gp cells (Homo sapiens, UniProt P08183); experiment: [3H]raltegravir cellular accumulation ratio; type: in vitro ADME; settings: 30 min
T2 sequence (P08183 whole entry): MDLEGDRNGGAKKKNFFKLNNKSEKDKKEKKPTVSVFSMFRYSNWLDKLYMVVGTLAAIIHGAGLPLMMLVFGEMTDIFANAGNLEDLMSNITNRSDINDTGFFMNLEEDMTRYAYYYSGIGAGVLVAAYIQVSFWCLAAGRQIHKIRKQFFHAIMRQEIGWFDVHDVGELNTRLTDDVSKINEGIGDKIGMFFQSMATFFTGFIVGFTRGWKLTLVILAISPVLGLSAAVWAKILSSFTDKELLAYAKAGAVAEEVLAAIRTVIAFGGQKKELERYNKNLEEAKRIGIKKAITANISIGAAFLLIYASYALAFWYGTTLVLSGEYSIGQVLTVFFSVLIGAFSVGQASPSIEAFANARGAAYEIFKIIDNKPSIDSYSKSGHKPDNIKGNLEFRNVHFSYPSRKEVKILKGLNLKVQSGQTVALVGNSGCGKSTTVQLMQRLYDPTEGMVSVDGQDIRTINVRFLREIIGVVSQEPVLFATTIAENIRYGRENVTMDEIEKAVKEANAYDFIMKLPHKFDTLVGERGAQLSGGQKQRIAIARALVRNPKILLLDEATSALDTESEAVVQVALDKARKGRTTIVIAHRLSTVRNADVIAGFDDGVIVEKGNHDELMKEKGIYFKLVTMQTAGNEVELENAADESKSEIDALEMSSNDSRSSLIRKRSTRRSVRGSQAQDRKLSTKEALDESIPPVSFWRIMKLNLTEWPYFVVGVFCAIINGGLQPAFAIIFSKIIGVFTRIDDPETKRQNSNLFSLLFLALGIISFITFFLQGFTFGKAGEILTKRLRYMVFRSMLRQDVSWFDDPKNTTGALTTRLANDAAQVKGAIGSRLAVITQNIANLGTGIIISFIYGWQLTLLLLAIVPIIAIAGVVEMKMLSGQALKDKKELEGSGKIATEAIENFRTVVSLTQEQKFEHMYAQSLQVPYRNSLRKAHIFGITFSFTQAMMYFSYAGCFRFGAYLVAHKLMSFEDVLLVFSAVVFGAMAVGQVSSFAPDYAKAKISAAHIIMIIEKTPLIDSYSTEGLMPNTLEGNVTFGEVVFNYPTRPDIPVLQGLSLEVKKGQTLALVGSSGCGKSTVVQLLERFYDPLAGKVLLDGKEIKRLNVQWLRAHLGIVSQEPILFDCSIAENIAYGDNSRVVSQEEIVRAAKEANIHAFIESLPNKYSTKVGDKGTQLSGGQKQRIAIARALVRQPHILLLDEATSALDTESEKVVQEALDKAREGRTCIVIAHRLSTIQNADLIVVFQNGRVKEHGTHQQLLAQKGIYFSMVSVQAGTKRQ

[3] = biological target: T1, MRP1 (ABCC1), CEM-MRP1 cells; experiment: [3H]ritonavir cellular accumulation ratio; type: in vitro ADME; settings: for Increase of the CAR of [3H]ritonavir by 100 μM cold drug: [3H]ritonavir 1 μM, 30 min
[4] = biological target: T1, MRP1 (ABCC1), CEM-MRP1 cells; experiment: [3H]raltegravir cellular accumulation ratio; settings: 30 min; for Effect of 100 μM cold drug (cis inhibitor) on [3H]raltegravir CAR: [3H]raltegravir 1 μM
[5] = biological target: T2, P-gp (ABCB1), CEM-P-gp cells; experiment: [3H]ritonavir cellular accumulation ratio; type: in vitro ADME; settings: reversan 10 μM, P = 0.0021
[6] = biological target: P-gp, primary CD3+CD4+ T cells (Homo sapiens, UniProt P08183); type: in vitro ADME; settings: XR9051 1 μM, P = 0.017
P-gp, primary CD3+CD4+ T cells, sequence (P08183 whole entry): as above

Molecule: COc1ccc2c3c([nH]c2c1)[C@H](CC(C)C)N1C(=O)[C@H](CCC(=O)OC(C)(C)C)NC(=O)[C@@H]1C3 [Ko143]
- Inhibition of calcein accumulation (primary CD4+ T cells; primary CD4+ T cells, low doses (<1 μM) of Ko143, data not shown): null inhibition

Molecule: CN(C)C(=O)CCSC(SCCC(=O)O)c1cccc(/C=C/c2ccc3ccc(Cl)cc3n2)c1 (stereo not shown) [MK571]
- Effect of efflux inhibitor on [3H]raltegravir CAR (CEM-WT cells): did not affect

Molecule: CC(C)CN(C[C@@H](O)[C@H](Cc1ccccc1)NC(=O)O[C@H]1CCOC1)S(=O)(=O)c1ccc(N)cc1 [amprenavir]
- Fluorescence ratio (MFI treated/MFI mock cells), calcein (CEM-WT (CEM-CCRF) cells): 0.87
- Fluorescence ratio (MFI treated/MFI mock cells), calcein [1]: 3.49

Molecule: COC(=O)N[C@H](C(=O)N[C@@H](Cc1ccccc1)[C@@H](O)CN(Cc1ccc(-c2ccccn2)cc1)NC(=O)[C@@H](NC(=O)OC)C(C)(C)C)C(C)(C)C [atazanavir]
- Fluorescence ratio (MFI treated/MFI mock cells), calcein (CEM-WT (CEM-CCRF) cells): 0.63
- Fluorescence ratio (MFI treated/MFI mock cells), calcein [1]: 2.54

Molecule: O=C1Nc2ccc(Cl)cc2[C@@](C#CC2CC2)(C(F)(F)F)O1 [efavirenz]
- Fluorescence ratio (MFI treated/MFI mock cells), calcein (CEM-WT (CEM-CCRF) cells): 0.94
- Fluorescence ratio (MFI treated/MFI mock cells), calcein [1]: 4.38

Molecule: CC(C)(C)NC(=O)[C@@H]1CN(Cc2cccnc2)CCN1C[C@@H](O)C[C@@H](Cc1ccccc1)C(=O)N[C@H]1c2ccccc2C[C@H]1O [indinavir]
- Fluorescence ratio (MFI treated/MFI mock cells), calcein (CEM-WT (CEM-CCRF) cells): 1.28
- Fluorescence ratio (MFI treated/MFI mock cells), calcein [1]: 2.11

Molecule: Cc1cccc(C)c1OCC(=O)N[C@@H](Cc1ccccc1)[C@@H](O)C[C@H](Cc1ccccc1)NC(=O)[C@H](C(C)C)N1CCCNC1=O [lopinavir]
- Fluorescence ratio (MFI treated/MFI mock cells), calcein (CEM-WT (CEM-CCRF) cells): 0.60
- Fluorescence ratio (MFI treated/MFI mock cells), calcein [1]: 4.20

Molecule: Cc1ccnc2c1NC(=O)c1cccnc1N2C1CC1 [nevirapine]
- Fluorescence ratio (MFI treated/MFI mock cells), calcein (CEM-WT (CEM-CCRF) cells): 0.92
- Fluorescence ratio (MFI treated/MFI mock cells), calcein [1]: 1.23

Molecule: Cc1nnc(C(=O)NC(C)(C)c2nc(C(=O)NCc3ccc(F)cc3)c(O)c(=O)n2C)o1 [raltegravir]
- Effect of 100 μM cold drug (cis inhibitor) on [3H]raltegravir CAR (CEM-WT cells): no changes
- CAR of raltegravir (CEM-WT cells; accumulation experiments (Figure 1b), normalized to 100%): 3.04 ± 0.62
- CAR of raltegravir (CEM-WT cells; time-course (Figure 1a)): 3.12 ± 0.12
- CAR of raltegravir ([2]; CEM-P-gp, [3H]raltegravir 1 μM, co-incubation with XR9051 1 μM, P = 0.0025): 2.46 ± 0.10
- Reduction in intracellular raltegravir accumulation with respect to CEM-WT ([2]; untreated CEM-P-gp): 52%
- CAR raltegravir P-gp/CAR raltegravir WT ([2]; untreated cells, P < 0.0001): 0.48
- Increase of the CAR of [3H]ritonavir by 100 μM cold drug [3]: did not inhibit
- Effect of 100 μM cold drug (cis inhibitor) on [3H]raltegravir CAR ([4]; CEM-MRP1): no changes
- Reduction in intracellular raltegravir accumulation with respect to control CEM-WT cells ([4]; untreated CEM-MRP1): > 30%
- CAR raltegravir MRP1/CAR raltegravir WT ([4]; untreated cells, P < 0.0001): 0.64

Molecule: O=C(NCCCN1CCOCC1)c1cnn2c(-c3ccccc3)cc(-c3ccccc3)nc12 [reversan]
- Effect of reversan on reduced [3H]ritonavir accumulation ([3]; reversan 10 μM, P = 0.037): reversed in part
- Effect of reversan on reduced [3H]ritonavir accumulation [5]: reversed in part

Molecule: CC(C)c1nc(CN(C)C(=O)N[C@H](C(=O)N[C@@H](Cc2ccccc2)C[C@H](O)[C@H](Cc2ccccc2)NC(=O)OCc2cncs2)C(C)C)cs1 [ritonavir]
- Effect of 100 μM cold drug (cis inhibitor) on [3H]raltegravir CAR (CEM-WT cells): did not affect
- Increase of the CAR of [3H]ritonavir by 100 μM cold drug [3]: 25%
- Effect of 100 μM cold drug (cis inhibitor) on [3H]raltegravir CAR ([4]; CEM-MRP1): did not affect

Molecule: CC(C)(C)NC(=O)[C@@H]1C[C@@H]2CCCC[C@@H]2CN1C[C@@H](O)[C@H](Cc1ccccc1)NC(=O)[C@H](CC(N)=O)NC(=O)c1ccc2ccccc2n1 [saquinavir]
- Fluorescence ratio (MFI treated/MFI mock cells), calcein (CEM-WT (CEM-CCRF) cells): 0.77
- Fluorescence ratio (MFI treated/MFI mock cells), calcein [1]: 3.94
- Effect of 100 μM cold drug (cis inhibitor) on [3H]raltegravir CAR (CEM-WT cells): did not affect
- Effect of 100 μM cold drug (cis inhibitor) on [3H]raltegravir CAR ([2]; CEM-P-gp, [3H]raltegravir 1 μM): significantly competed with raltegravir efflux
- Effect of 100 μM cold drug (cis inhibitor) on [3H]raltegravir CAR ([4]; CEM-MRP1): did not affect

Molecule: XR9051
- Effect of efflux inhibitor on [3H]raltegravir CAR (CEM-WT cells): did not significantly alter; also recorded: did not affect
- Effect of efflux inhibitor on [3H]raltegravir CAR ([2]; CEM-P-gp, XR9051 10 μM or 1 μM (Figure 1a)): significantly increased accumulation
- Effect of XR9051 on reduced [3H]raltegravir accumulation ([6]; CD3+CD4+P-gp^high cells): significantly reverse this effect
- Effect of XR9051 on reduced [3H]raltegravir accumulation ([6]; total unsorted PBMCs): could also be reversed
- Effect on activity of P-gp^high cells (calcein efflux) (primary CD4+ T cells; non-stimulated CD4+ cells, XR9051 1 μM during the 2 h efflux time): remarkably inhibited
- Effect of efflux inhibitor on [3H]raltegravir CAR ([4]; CEM-MRP1, MK571 100 μM, XR9051 10 μM): neither MK571 nor XR9051 affected
